Data reported in article PMC9189845, “Structure–Activity Relationships of 8-Hydroxyquinoline-Derived Mannich Bases with Tertiary Amines Targeting Multidrug-Resistant Cancer” (Journal of Medicinal Chemistry, 2022).
Read-outs that look alike come from different tables or passages of the source.

Assays:
[1] = test system: A431-B1 cells; assay: PrestoBlue viability assay, A431-B1 (A431-ABCB1) cells
[2] = test system: MES-SA/Dx5 cells; assay: PrestoBlue viability assay, MES-SA/Dx5 cells (MDR, P-gp positive); conditions: for SR_TQ: selectivity ratio MES-SA vs MES-SA/Dx5, with TQ; for SR: selectivity ratio MES-SA vs MES-SA/Dx5, without TQ
[3] = test system: MES-SA cells; assay: PrestoBlue viability assay, MES-SA cells
[4] = UV-visible spectrophotometric titrations (pKa); format: physicochemical; conditions: water with 0.2% (v/v) DMSO, 25 °C
Experimental: Spectrophotometrical determination of pKa values was performed as previously reported.[20],[50] An Agilent Cary 8454 diode array spectrophotometer was used to record the UV–visible spectra in the interval 200–800 nm. The path length was between 1 and 5 cm. The spectrophotometric titrations were performed in water with 0.2% (v/v) DMSO on samples containing the compounds at 2–50 μM in the pH range from 2 to 11.5 at 25.0 ± 0.1 °C at an ionic strength of 0.10 M (KCl). Proton dissociation constants and the individual spectra of the species in the different protonation states were calculated with the computer program PSEQUAD.[62]

[5] = test system: A431 cells; assay: PrestoBlue viability assay, A431 cells
[6] = 72 h, read-out: IC50 / µM A431-B1, 72 h incubation
[7] = read-out: pIC50 A431-B1, SARM figure (converted)
[8] = Homo sapiens, MES-SA/Dx5, 72 h, read-out: IC50 / μM MES-SA/Dx5, absence of TQ, 72 h incubation
[9] = Homo sapiens, MES-SA/Dx5, read-out: IC50 / μM MES-SA/Dx5 (values in parentheses), presence of 1 μM P-gp inhibitor tariquidar (TQ)
[10] = Homo sapiens, MES-SA/Dx5, read-out: pIC50 value MES-SA/Dx5 + TQ, MES-SA/Dx5 cells, with TQ (converted)
[11] = Homo sapiens, MES-SA/Dx5, read-out: pIC50 value MES-SA/Dx5, MES-SA/Dx5 cells, without TQ (converted)
[12] = read-out: IC50 / μM MES-SA/Dx5, absence of TQ, 72 h incubation
[13] = Homo sapiens, MES-SA, 72 h, read-out: IC50 / μM MES-SA, absence of TQ, 72 h incubation
[14] = Homo sapiens, MES-SA, read-out: IC50 / μM MES-SA (values in parentheses), presence of 1 μM P-gp inhibitor tariquidar (TQ)
[15] = Homo sapiens, MES-SA, read-out: pIC50 MES-SA, absence of TQ (converted), SARM figure
[16] = Homo sapiens, MES-SA, read-out: pIC50 value MES-SA+TQ, MES-SA cells, with TQ (converted)
[17] = Homo sapiens, MES-SA, read-out: pIC50 value MES-SA, MES-SA cells, without TQ (converted)
[18] = read-out: IC50 / μM MES-SA, absence of TQ, 72 h incubation
[19] = 0.2% DMSO, I = 0.10 M KCl, read-out: pKa (OH), experimentally determined
[20] = read-out: pKa (NpiperaziniumH+ at methyl / N-ethyl), experimentally determined
[21] = quinolinium nitrogen, I = 0.10 M KCl, read-out: pKa (NquinH+), experimentally determined
[22] = Homo sapiens, A-431, 72 h, read-out: IC50 / µM A431, 72 h incubation
[23] = Homo sapiens, A-431, read-out: pIC50 A431, SARM figure (converted)
[24] = piperidinium / pyrrolidinium / morpholinium N, read-out: pKa (other; N+amH alkylamine nitrogen), experimentally determined

SMILES | IC50 [1, 6] | IC50 [1, 7] | pKa [4, 19] | pKa [4, 21] | IC50 [5, 22] | IC50 [5, 23] | pKa [4, 24] | IC50 [2, 8] | IC50 [2, 9] | IC50 [2, 10] | IC50 [2, 11] | SR_TQ [2] | SR [2] | IC50 [3, 13] | IC50 [3, 14] | IC50 [3, 16] | IC50 [3, 17] | other results
CN1CCN(Cc2cc(Cl)c3cccnc3c2O)CC1 [Compound 9] | 3.55 ± 0.5 µM | 6.31 µM | 9.63 ± 0.03 | 3.56 ± 0.03 | 17 ± 1.04 µM | 14.5 µM |  | 1.59 ± 0.27 µM | 4.3 µM | 4.27 µM | 1.86 µM | 1.19 | 2.84 | 5.86 ± 0.98 µM | 5.14 µM | 5.13 µM | 5.37 µM | IC50 ([1]; read-out: IC50 / µM A431-B1, 72 h incubation): 6.67 ± 2.4 µM; IC50 ([2]; Homo sapiens, MES-SA/Dx5, read-out: pIC50 Dx5, absence of TQ (converted), SARM figure): 1.55 µM; IC50 ([2]; Homo sapiens, MES-SA/Dx5, read-out: pIC50 Dx5_TQ, presence of 1 μM TQ (converted), SARM figure): 6.76 µM; IC50 [2, 12]: 1.9 ± 0.37 µM; IC50 [3, 15]: 5.75 µM; IC50 ([3]; Homo sapiens, MES-SA, read-out: pIC50 MES-SA_TQ, presence of 1 μM TQ (converted), SARM figure): 10 µM; IC50 [3, 18]: 5.39 ± 0.47 µM; pKa [4, 20]: 5.61 ± 0.03; IC50 ([5]; read-out: IC50 / µM A431, 72 h incubation): 15.9 ± 7.44 µM
COCc1ccc(O)c2ncccc12 [Compound 14] |  |  | 9.43 ± 0.03 | 4.64 ± 0.03 |  |  |  | 1.79 ± 0.09 µM |  |  | 1.78 µM |  | 1.4 | 2.51 ± 0.13 µM |  |  | 2.51 µM | 
CCOCc1cc(CN2CCCC2)c(O)c2ncccc12 [Compound 18] | 5.92 ± 2.14 µM | 5.62 µM | 7.89 ± 0.03 | 2.49 ± 0.03 | 35.2 ± 11.5 µM | 33.1 µM | 11.21 ± 0.03 | 0.93 ± 0.18 µM | 5.25 ± 0.18 µM | 5.25 µM | 0.912 µM | 1.66 | 9.27 | 8.61 ± 1.31 µM | 8.73 ± 0.54 µM | 8.71 µM | 8.51 µM | 
Oc1ccc(CN2CCCCC2)c2cccnc12 [Compound 47] |  |  | 8.45 ± 0.03 | 3.83 ± 0.03 |  |  | 10.23 ± 0.03 | 4.36 ± 0.4 µM |  |  | 4.37 µM |  | 1.71 | 7.45 ± 0.06 µM |  |  | 7.41 µM | 
CCOC(=O)C1CCN(Cc2cc(Cl)c3cccnc3c2O)CC1 [Compound 49] | 1.99 ± 0.25 µM | 2 µM |  |  | 8.57 ± 2.94 µM | 8.13 µM |  | 0.18 ± 0.03 µM | 0.98 µM | 0.977 µM | 0.178 µM | 1.73 | 9.91 | 1.78 ± 0.12 µM | 1.7 µM | 1.7 µM | 1.78 µM | 
CCN1CCN(Cc2ccc(O)c3ncccc23)CC1 [Compound 55] |  |  | 9.67 ± 0.03 | 4.94 ± 0.03 |  |  |  | 21.38 ± 0.1 µM |  |  | 21.4 µM |  | 0.83 | 17.7 ± 3.14 µM |  |  | 17.4 µM | pKa [4, 20]: 5.48 ± 0.03; pKa ([4]; read-out: pKa (NpiperaziniumH+ closer to quinoline ring), experimentally determined): 2.6 ± 0.03

Further lines, with some results ahead:

IC50 [1, 6] | IC50 [1, 7] | pKa [4, 19] | pKa [4, 21] | IC50 [5, 22] | IC50 [5, 23] | pKa [4, 24] | SMILES | IC50 [2, 8] | IC50 [2, 9] | IC50 [2, 10] | IC50 [2, 11] | SR_TQ [2] | SR [2] | IC50 [3, 13] | IC50 [3, 14] | IC50 [3, 16] | IC50 [3, 17] | other results
1.69 ± 0.27 µM | 1.66 µM | 5.8 ± 0.03 | < 2 | 6.67 ± 1.69 µM | 6.46 µM | > 11 | Oc1c(CN2CCCCC2)cc(Cl)c2cccnc12 [Compound 19] | 0.29 ± 0.05 µM | 2.58 µM | 2.57 µM | 0.282 µM | 1.31 | 8.71 | 2.49 ± 0.39 µM | 3.38 µM | 3.39 µM | 2.45 µM | IC50 [3, 15]: 2.24 µM
2.16 ± 0.35 µM | 1.58 µM | 7.16 ± 0.03 | 1.8 ± 0.1 | 6.91 ± 1.37 µM | 6.76 µM | > 11 | Oc1c(CN2CCCCC2)cc(Br)c2cccnc12 [Compound 20, 5-Bromo-7-(piperidin-1-ylmethyl)quinolin-8-ol] | 0.17 ± 0.02 µM | 1.32 ± 0.08 µM | 1.32 µM | 0.166 µM | 1.29 | 10.67 | 1.79 ± 0.16 µM | 1.71 µM | 1.7 µM | 1.78 µM | IC50 ([2]; read-out: IC50 / μM MES-SA/Dx5 (values in parentheses), presence of 1 μM P-gp inhibitor tariquidar (TQ)): 1.33 µM; IC50 [2, 12]: 0.16 ± 0.02 µM; IC50 [3, 18]: 1.78 ± 0.17 µM
2.94 ± 1.69 µM | 2.57 µM |  |  | 5.57 ± 1.08 µM | 5.5 µM |  | Oc1c(CN2CCCCCC2)cc(Cl)c2cccnc12 [Compound 53] | 0.33 ± 0.06 µM | 2 ± 0.19 µM | 2 µM | 0.324 µM | 1.32 | 8.4 | 2.76 ± 0.14 µM | 2.64 ± 0.27 µM | 2.63 µM | 2.75 µM | 
